Assay results taken from patent US6376497B1, “Antifungal azole derivatives having a fluorinated vinyl group and process for preparing same” (Korea Research Institute of Chemical Technology, priority 1999, dated 2002).

Legend:
Test in all cases: In vitro antifungal activity, microbroth dilution MIC
Format in all cases: cell-based
[1] = test system: Aspergillus furnigatus B. 19119; details: 4 to 48 hours; for Minimal inhibitory concentration (MIC): A furnigatus B. 19119, RPMI-1640, 35° C.; for Minimal inhibitory concentration(MIC), A furnigatus B. 19119: RPMI-1640, 35° C., no growth observed
Outline: (§1)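 Broth microdilution adapted from NCCLS M27, in RPMI-1640 with 0.165 M MOPS, pH 7.0. Yeast or mould inoculum at 2×10^3 CFU/ml was mixed 1:1 with DMSO-derived compound solutions (200 to 0.10 μg/ml before mixing) and incubated at 35 °C for 4 to 48 h. MIC was the concentration showing no growth.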

[2] = test system: Aspergillus niger A. 16404; details: 4 to 48 hours; for Minimal inhibitory concentration (MIC): A. niger A. 16404, RPMI-1640, 35° C.; for Minimal inhibitory concentration(MIC), A. niger A. 16404: RPMI-1640, 35° C., no growth observed
Outline: as §1

[3] = test system: Candida albicans A. 10231; details: C. albicans A. 10231, RPMI-1640, 35° C., 4 to 48 hours
Outline: as §1

Candida albicans C1-2 = details: C. albicans C1-2, RPMI-1640, 35° C., 4 to 48 hours
Outline: as §1

[4] = test system: Candida albicans IFO. 1385; details: 4 to 48 hours; for Minimal inhibitory concentration (MIC): C. albicans IFO. 1385, RPMI-1640, 35° C.; for Minimal inhibitory concentration(MIC), C. albicans IFO. 1385: RPMI-1640, 35° C., no growth observed
Outline: as §1

Candida krusei K. 11655 = details: 4 to 48 hours; for Minimal inhibitory concentration (MIC): C. krusei K. 11655, RPMI-1640, 35° C.; for Minimal inhibitory concentration(MIC), C. krusei K. 11655: RPMI-1640, 35° C., no growth observed
Outline: as §1

[5] = test system: Candida parapsitosis A. 7330; details: 4 to 48 hours; for Minimal inhibitory concentration (MIC): C. parapsitosis A. 7330, RPMI-1640, 35° C.; for Minimal inhibitory concentration(MIC), C. parapsitosis A. 7330: RPMI-1640, 35° C., no growth observed
Outline: as §1

[6] = test system: Candida pseudotropicalis K. 11658; details: 4 to 48 hours; for Minimal inhibitory concentration (MIC): C. pseudotropicalis K. 11658, RPMI-1640, 35° C.; for Minimal inhibitory concentration(MIC), C. pseudotropicalis K. 11658: RPMI-1640, 35° C., no growth observed
Outline: as §1

[7] = test system: Candida tropicalis A. 13803; details: 4 to 48 hours; for Minimal inhibitory concentration (MIC): C. tropicalis A. 13803, RPMI-1640, 35° C.; for Minimal inhibitory concentration(MIC), C. tropicalis A. 13803: RPMI-1640, 35° C., no growth observed
Outline: as §1

[8] = test system: Cryptococcus neoformans A. 34144; details: 4 to 48 hours; for Minimal inhibitory concentration (MIC): Cry. neoformans A. 34144, RPMI-1640, 35° C.; for Minimal inhibitory concentration(MIC), Cry. neoformans A. 34144: RPMI-1640, 35° C., no growth observed
Outline: as §1

[9] = test system: Cryptococcus neoformans B. 42419; details: 4 to 48 hours; for Minimal inhibitory concentration (MIC): Cry. neoformans B. 42419, RPMI-1640, 35° C.; for Minimal inhibitory concentration(MIC), Cry. neoformans B. 42419: RPMI-1640, 35° C., no growth observed
Outline: as §1

[10] = test system: Cryptococcus neoformans IFM. 40092; details: 4 to 48 hours; for Minimal inhibitory concentration (MIC): Cry. neoformans IFM. 40092, RPMI-1640, 35° C.; for Minimal inhibitory concentration(MIC), Cry. neoformans IFM. 40092: RPMI-1640, 35° C., no growth observed
Outline: as §1

[11] = test system: Torulopsis glabrata B. 16205; details: 4 to 48 hours; for Minimal inhibitory concentration (MIC): T. glabrata B. 16205, RPMI-1640, 35° C.; for Minimal inhibitory concentration(MIC), T. glabrata B. 16205: RPMI-1640, 35° C., no growth observed
Outline: as §1

[12] = test system: Trichophyton mentagrophytes A. 9129; details: 4 to 48 hours; for Minimal inhibitory concentration (MIC): T. mentagrophytes A. 9129, RPMI-1640, 35° C.; for Minimal inhibitory concentration(MIC), T. mentagrophytes A. 9129: RPMI-1640, 35° C., no growth observed
Outline: as §1

[13] = test system: Trichophyton mentagrophytes B. 32663; details: 4 to 48 hours; for Minimal inhibitory concentration (MIC): T. mentagrophytes B. 32663, RPMI-1640, 35° C.; for Minimal inhibitory concentration(MIC), T. mentagrophytes B. 32663: RPMI-1640, 35° C., no growth observed
Outline: as §1

SMILES | Minimal inhibitory concentration (MIC) [1] | Minimal inhibitory concentration (MIC) [2] | Minimal inhibitory concentration (MIC) [3] | Minimal inhibitory concentration (MIC) (Candida albicans C1-2) | Minimal inhibitory concentration (MIC) [4] | Minimal inhibitory concentration (MIC) (Candida krusei K. 11655) | Minimal inhibitory concentration (MIC) [5] | Minimal inhibitory concentration (MIC) [6] | Minimal inhibitory concentration (MIC) [7] | Minimal inhibitory concentration (MIC) [8] | Minimal inhibitory concentration (MIC) [9] | Minimal inhibitory concentration (MIC) [10] | Minimal inhibitory concentration (MIC) [11] | Minimal inhibitory concentration (MIC) [12] | Minimal inhibitory concentration (MIC) [13] | Minimal inhibitory concentration(MIC), A furnigatus B. 19119 [1] | Minimal inhibitory concentration(MIC), A. niger A. 16404 [2] | Minimal inhibitory concentration(MIC), C. albicans IFO. 1385 [4] | Minimal inhibitory concentration(MIC), C. krusei K. 11655 (Candida krusei K. 11655) | Minimal inhibitory concentration(MIC), C. parapsitosis A. 7330 [5] | other results
FC(OCC1COC(Cn2ccnc2)(c2ccc(F)cc2F)O1)=C(c1cc(Cl)cc(Cl)c1)C(F)(F)F (mixture of isomers) [Ex. 67] | 3.13 µg/mL | 100 µg/mL | 12.5 µg/mL | 12.5 µg/mL | 0.78 µg/mL | 50.0 µg/mL | 100 µg/mL | 25.0 µg/mL | 100 µg/mL | 1.56 µg/mL | 1.56 µg/mL | 0.20 µg/mL | 6.25 µg/mL | 6.25 µg/mL | 1.56 µg/mL |  |  |  |  |  | 
FC(OCC1COC(Cn2ccnc2)(c2ccc(F)cc2F)O1)=C(c1cccs1)C(F)(F)F (mixture of isomers) [Ex. 68] | 1.56 µg/mL | 12.5 µg/mL | 6.25 µg/mL | 12.5 µg/mL | 0.78 µg/mL | 50.0 µg/mL | >100 µg/mL | 25.0 µg/mL | 50.0 µg/mL | 1.56 µg/mL | 0.78 µg/mL | ≦0.10 μg/ml | 3.13 µg/mL | 1.56 µg/mL | 1.56 µg/mL |  |  |  |  |  | 
FC(=Cc1ccccc1)OCC1COC(Cn2cncn2)(c2ccc(Cl)cc2Cl)O1 (mixture of isomers) [Ex. 69] | 6.25 µg/mL | 6.25 µg/mL | 25.0 µg/mL | 25.0 µg/mL | 3.13 µg/mL | 12.5 µg/mL | >100 µg/mL | 6.25 µg/mL | >100 µg/mL | 3.13 µg/mL | 1.56 µg/mL | 0.39 µg/mL | 25 µg/mL | 0.78 µg/mL | 0.39 µg/mL |  |  |  |  |  | 
Cc1cccc(C=C(F)OCC2COC(Cn3cncn3)(c3ccc(Cl)cc3Cl)O2)c1 (mixture of isomers) [Ex. 70] | 50.0 µg/mL | 100 µg/mL | 25.0 µg/mL | 25.0 µg/mL | 6.25 µg/mL | 100 µg/mL | >100 µg/mL | 50.0 µg/mL | 100 µg/mL | 3.13 µg/mL | 3.13 µg/mL | 0.78 µg/mL | 25.0 µg/mL | 3.13 µg/mL | 3.13 µg/mL |  |  |  |  |  | 
Cc1ccc(C=C(F)OCC2COC(Cn3cncn3)(c3ccc(Cl)cc3Cl)O2)cc1 (mixture of isomers) [Ex. 71] |  |  | 50.0 µg/mL | 50.0 µg/mL |  |  |  |  |  |  |  |  |  |  |  | 100 µg/mL | 100 µg/mL | 6.25 µg/mL | 100 µg/mL | 100 µg/mL | Minimal inhibitory concentration(MIC), C. pseudotropicalis K. 11658 [6]: 25.0 µg/mL; Minimal inhibitory concentration(MIC), C. tropicalis A. 13803 [7]: 100 µg/mL; Minimal inhibitory concentration(MIC), Cry. neoformans A. 34144 [8]: 1.56 µg/mL; Minimal inhibitory concentration(MIC), Cry. neoformans B. 42419 [9]: 1.56 µg/mL; Minimal inhibitory concentration(MIC), Cry. neoformans IFM. 40092 [10]: 0.20 µg/mL; Minimal inhibitory concentration(MIC), T. glabrata B. 16205 [11]: 25.0 µg/mL; Minimal inhibitory concentration(MIC), T. mentagrophytes A. 9129 [12]: 6.25 µg/mL; Minimal inhibitory concentration(MIC), T. mentagrophytes B. 32663 [13]: 6.25 µg/mL
CCc1ccc(C=C(F)OCC2COC(Cn3cncn3)(c3ccc(Cl)cc3Cl)O2)cc1 (mixture of isomers) [Ex. 72] |  |  | 250 µg/mL | 25.0 µg/mL |  |  |  |  |  |  |  |  |  |  |  | >100 µg/mL | >100 µg/mL | 1.56 µg/mL | 25.0 µg/mL | 100 µg/mL | Minimal inhibitory concentration(MIC), C. pseudotropicalis K. 11658 [6]: 12.5 µg/mL; Minimal inhibitory concentration(MIC), C. tropicalis A. 13803 [7]: 25.0 µg/mL; Minimal inhibitory concentration(MIC), Cry. neoformans A. 34144 [8]: 3.13 µg/mL; Minimal inhibitory concentration(MIC), Cry. neoformans B. 42419 [9]: 3.13 µg/mL; Minimal inhibitory concentration(MIC), Cry. neoformans IFM. 40092 [10]: 1.56 µg/mL; Minimal inhibitory concentration(MIC), T. glabrata B. 16205 [11]: 25.0 µg/mL; Minimal inhibitory concentration(MIC), T. mentagrophytes A. 9129 [12]: 12.5 µg/mL; Minimal inhibitory concentration(MIC), T. mentagrophytes B. 32663 [13]: 12.5 µg/mL
Cc1cc(C)cc(C=C(F)OCC2COC(Cn3cncn3)(c3ccc(Cl)cc3Cl)O2)c1 (mixture of isomers) [Ex. 73] |  |  | 50.0 µg/mL | 50.0 µg/mL |  |  |  |  |  |  |  |  |  |  |  | >100 µg/mL | >100 µg/mL | 12.5 µg/mL | 100 µg/mL | >100 µg/mL | Minimal inhibitory concentration(MIC), C. pseudotropicalis K. 11658 [6]: 50.0 µg/mL; Minimal inhibitory concentration(MIC), C. tropicalis A. 13803 [7]: >100 µg/mL; Minimal inhibitory concentration(MIC), Cry. neoformans A. 34144 [8]: 12.5 µg/mL; Minimal inhibitory concentration(MIC), Cry. neoformans B. 42419 [9]: 6.25 µg/mL; Minimal inhibitory concentration(MIC), Cry. neoformans IFM. 40092 [10]: 1.56 µg/mL; Minimal inhibitory concentration(MIC), T. glabrata B. 16205 [11]: 50.0 µg/mL; Minimal inhibitory concentration(MIC), T. mentagrophytes A. 9129 [12]: 25.0 µg/mL; Minimal inhibitory concentration(MIC), T. mentagrophytes B. 32663 [13]: 25.0 µg/mL
COc1ccc(C=C(F)OCC2COC(Cn3cncn3)(c3ccc(Cl)cc3Cl)O2)cc1 (mixture of isomers) [Ex. 74] |  |  | 100 µg/mL | 100 µg/mL |  |  |  |  |  |  |  |  |  |  |  | >100 µg/mL | >100 µg/mL | 12.5 µg/mL | 100 µg/mL | >100 µg/mL | Minimal inhibitory concentration(MIC), C. pseudotropicalis K. 11658 [6]: 25.0 µg/mL; Minimal inhibitory concentration(MIC), C. tropicalis A. 13803 [7]: >100 µg/mL; Minimal inhibitory concentration(MIC), Cry. neoformans A. 34144 [8]: 6.25 µg/mL; Minimal inhibitory concentration(MIC), Cry. neoformans B. 42419 [9]: 3.13 µg/mL; Minimal inhibitory concentration(MIC), Cry. neoformans IFM. 40092 [10]: 0.78 µg/mL; Minimal inhibitory concentration(MIC), T. glabrata B. 16205 [11]: 50.0 µg/mL; Minimal inhibitory concentration(MIC), T. mentagrophytes A. 9129 [12]: 12.5 µg/mL; Minimal inhibitory concentration(MIC), T. mentagrophytes B. 32663 [13]: 12.5 µg/mL
